Experimental data published in article PMC12216184 (Nature Communications, 2025).
Non-standard residues stand in square brackets, D forms with d. No end group written: not given here.

Assays:
[1] = target: N-terminal p53 region from amino acids 1 to 94 (p53^1-94) (human) (UniProt P04637); assay: ITC
[2] = target: p53^TAD2 phosphorylated at Thr55 (human) (UniProt P04637); assay: ITC
[3] = target: p53^TAD2 (residues 37-57), synthetic peptide (human) (UniProt P04637); assay: ITC
[4] = target: p53^TAD2 phosphorylated at Ser46 and Thr55 (human) (UniProt P04637); assay: ITC
p53^TAD2 phosphorylated at Ser46 and Thr55 (human), sequence (P04637 37-57): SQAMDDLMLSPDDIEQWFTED

[5] = target: p53^TAD2 phosphorylated at Ser46 (human) (UniProt P04637); assay: ITC
[6] = tested on: p53^1–94; assay: NMR secondary chemical shifts and relaxation (15N{1H} NOE, R1, R2) of p53^1–94; format: binding, human; conditions: 300 µM p53^1–94 with 400 µM ligand, pH 7.5
Experimental: Data analysis von R1 and R1ρ measurements were performed using CcpNMR 2.5[49]. As fitting function, the following equation was used2 Mzt=M0^−Rit+C where Mz(t) is the longitudinal relaxation at the recovery delay time t, M0 is the equilibrium magnetization and Ri is either the longitudinal relaxation rate R1 or R1ρ. The transverse relaxation in the rotating frame R1ρ was then converted to R2 as described previously[50],[51] using the formula3 R1ρ=R1cos^2θ+R2sin^2θ in which θ = arctan(1/Ω) is the tilt angle between the static magnetic field and the effective field in the rotating frame.

[7] = tested on: endogenous p53 versus p53^ΔTAD2 in RPE-1 cells; assay: Pull-down of endogenous p53 versus p53^ΔTAD2 from RPE-1 cells; format: binding, human; conditions: biotinylated bait (26 µM FOXO-FH or 125 µM biotinylated peptide CLO4201) on streptavidin agarose, 1 mg/mL RPE-1 lysate, 4 °C, Western blot, triplicates
Text: Then, cells were selected by blasticidin for 10 days. Cells, which were expressing 3HA-GFP-miniturbo, p53-3HA-GFP-miniturbo-p53 and p53-Δtad2-3HA-GFP-miniturbo were sorted by FACS using GFP (Supplementary Fig. 17).
p53 mutant human TERT-immortalized retinal pigment epithelial 1 (RPE1) cells (RPE1 TP53^−/−; denoted RPE-1 p53KO) cells were kindly provided by Joanna Loizou (CeMM Research Center for Molecular Medicine of the Austrian Academy of Sciences, Vienna, Austria)[48]. […] For the preparation of cell lysates for pull down experiments, cells were grown to confluence and incubated with 10 µM Etoposide (Sigma) for 24 h. Cells were harvested in ice cold PBS pH 7.4 and lysed in lysis buffer (10 mM Tris pH 7.4, 1% IGEPAL®CA-630, 0.1% SDS, 140 mM NaCl, 2 mM MgCl2) supplemented with protease inhibitor cocktail, Benzonase (Merck Millipore) and RNase (molecular biology, Thermo Fisher). Samples were incubated on ice for 20 min, lysed by sonication and centrifuged for 15 min at 24,104 g and 4 °C. Pellets were discarded. Protein amount of lysates was determined by BCA protein assay. Lysates were then diluted to a protein concentration of 1 mg/mL in ice-cold dilution buffer (10 mM Tris pH 7.4, 1% IGEPAL®CA-630, 0.1% SDS, 140 mM NaCl, 2 mM EDTA) supplemented with protease inhibitor cocktail. […]

[8] = tested on: p53^1–94; assay: 1H,15N HSQC NMR titration of 15N-labeled p53^1–94 (CSP); format: binding, human; conditions: 15N-labeled p53^1–94, NMR titration
Experimental: (§1) All NMR spectra were recorded at 298 K either on a 700 MHz Bruker Avance III NMR spectrometer equipped with a TCI cryoprobe or on a 600 MHz Bruker Avance Neo NMR spectrometer equipped with a TXI 600S3 probehead at 298 K. All samples were in 50 mM NaH2PO4/Na2HPO4, pH 7.5 and 10 % D2O was added for the lock. Chemical shifts of the recombinant FOXO4-LRI were assigned using the following three-dimensional spectra: HNCACB, CBCA(CO)NH, (HN)N(CA)NNH, HN(NCA)NNH and (H)CC(CO)NH.
(§2) The CSPs were calculated according to the following equation:1 CSP=δH^2+ΔδN^2/7 where ΔδH and ΔδN indicate the chemical shift changes of the amide proton and nitrogen, respectively, using CcpNMR 2.5[49].

[9] = target: T1, p53^TAD2pS46T55 (Homo sapiens, UniProt P04637); assay: ITC, p53^TAD2pS46T55; format: binding
T1 construct: purchased Peptide Specialty Laboratories GmbH

[10] = target: T2, p53^1-94 (Homo sapiens, UniProt P04637); assay: ITC, p53^1-94; format: binding
T2 construct: His6-protein A (TEV cleavage site) (cleaved yes); made in house; host or cells: Escherichia coli BL21-DE3 Star
T2 sequence (P04637 1-94): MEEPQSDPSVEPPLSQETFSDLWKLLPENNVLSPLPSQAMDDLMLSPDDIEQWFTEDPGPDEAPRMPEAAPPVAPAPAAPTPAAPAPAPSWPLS

[11] = target: T3, p53^TAD2pT55 (Homo sapiens, UniProt P04637); assay: ITC, p53^TAD2pT55; format: binding
T3 construct: purchased Peptide Specialty Laboratories GmbH

[12] = target: T4, p53^TAD2 (Homo sapiens, UniProt P04637); assay: ITC, p53^TAD2; format: binding
T4 construct: purchased Peptide Specialty Laboratories GmbH

[13] = target: T5, p53^TAD2pS46 (Homo sapiens, UniProt P04637); assay: ITC, p53^TAD2pS46; format: binding
T5 construct: purchased Peptide Specialty Laboratories GmbH

[14] = tested on: FOXO4^CR3; assay: 1H,15N HSQC NMR titration of 15N-labeled FOXO4^CR3 (CSP); format: binding, human; conditions: 15N-labeled FOXO4^CR3, NMR titration with p53^DBD
Experimental: as §1, §2

[15] = tested on: FOXO4^FH; assay: 1H,15N HSQC NMR titration of 15N-labeled FOXO4^FH (CSP); format: binding, human; conditions: one equivalent of phosphopeptide versus p53^TAD2, 15N-labeled FOXO4^FH
Experimental: as §1, §2

N-terminal p53 region from amino acids 1 to 94 (p53^1-94) (human), sequence (P04637 1-94): as above

FOXO4-DRI (D-retro-inverso cell-penetrating peptide derived from the FOXO4 FH domain, fused to HIV-TAT)
dH [1]: 24.7 kJ/mol
stoichiometry N [1]: 0.9
dH [2]: -19.7 kJ/mol
stoichiometry N [2]: 0.74
dH [3]: 0.837 kJ/mol
stoichiometry N [3]: 0.9
dH [4]: -18.8 kJ/mol
stoichiometry N [4]: 1.11
dH [5]: -7.53 kJ/mol
stoichiometry N [5]: 0.71

FOXO4^FH: FOXO4 forkhead domain fragment, amino acids 86–208
15N{1H} NOE change [6]: increased substantially in the presence of FOXO4^FH
R1 relaxation rate change [6]: highly similar
pull-down of endogenous p53 versus p53^ΔTAD2 [7]: higher amounts of endogenous p53 versus p53^ΔTAD2
most affected residues of p53 (CSP) [8]: region from amino acids 45 to 57

[dL][dT][dL][dR][dK][dE][dP][dA][dS][dE][dI][dA][dQ][dS][dI][dL][dE][dA][dY][dS][dQ][dN]G[dW][dA][dN][dR][dR][dS]GG[dK][dR][dP][dP][dP][dR][dR][dR][dQ][dR][dR][dK][dK][dR]G [FOXO4-DRI]
Kd [9]: 4.9 ± 0.3 µM
Kd [10]: 0.4 ± 0.3 µM
Kd [11]: 5.8 ± 1.2 µM
Kd [12]: 18.5 ± 3.6 µM
Kd [13]: 10.5 ± 1.5 µM

p53^DBD: human p53 DNA-binding domain fragment, amino acids 94–312
most affected residues of FOXO4^CR3 (CSP) [14]: between FOXO4 amino acids 473 and 491

p53^TAD2pS46: p53^TAD2 peptide phosphorylated at Ser46
effect of phosphorylation on CSPs of FOXO4^FH [15]: stronger CSPs

p53^TAD2pT55: p53^TAD2 peptide phosphorylated at Thr55
effect of phosphorylation on CSPs of FOXO4^FH [15]: stronger CSPs
